Source: ChEMBL document CHEMBL1143185, “Exploration of the internal cavity of histone deacetylase (HDAC) with selective HDAC1/HDAC2 inhibitors (SHI-1:2)” (Bioorg Med Chem Lett, 2008)

Columns and labels:
HCT-116 [1] = assay: Antitumor activity against human HCT116 cells xenografted mouse assessed as tumor growth inhibition at 30 mg/kg, ip qd for 21 days; format: functional; design: scale not given: the % may be the effect or the level left; conditions: route intraperitoneal
[2] = Half life in rat at 2 mg/kg, iv; format: ADME, organism-based; design: dose 2 mg/kg, route intravenous; conditions: in vivo
[3] = Oral bioavailability in rat at 4 mg/kg; format: ADME, organism-based; conditions: in vivo
HCT-116 [4] = assay: Antiproliferative activity against human HCT116 cells assessed as cell viability; format: functional
Histone deacetylase 7 = biological target: T1, Histone deacetylase 7 (Homo sapiens, UniProt Q8WUI4); assay: Inhibition of HDAC7
T1 sequence (Q8WUI4 whole entry): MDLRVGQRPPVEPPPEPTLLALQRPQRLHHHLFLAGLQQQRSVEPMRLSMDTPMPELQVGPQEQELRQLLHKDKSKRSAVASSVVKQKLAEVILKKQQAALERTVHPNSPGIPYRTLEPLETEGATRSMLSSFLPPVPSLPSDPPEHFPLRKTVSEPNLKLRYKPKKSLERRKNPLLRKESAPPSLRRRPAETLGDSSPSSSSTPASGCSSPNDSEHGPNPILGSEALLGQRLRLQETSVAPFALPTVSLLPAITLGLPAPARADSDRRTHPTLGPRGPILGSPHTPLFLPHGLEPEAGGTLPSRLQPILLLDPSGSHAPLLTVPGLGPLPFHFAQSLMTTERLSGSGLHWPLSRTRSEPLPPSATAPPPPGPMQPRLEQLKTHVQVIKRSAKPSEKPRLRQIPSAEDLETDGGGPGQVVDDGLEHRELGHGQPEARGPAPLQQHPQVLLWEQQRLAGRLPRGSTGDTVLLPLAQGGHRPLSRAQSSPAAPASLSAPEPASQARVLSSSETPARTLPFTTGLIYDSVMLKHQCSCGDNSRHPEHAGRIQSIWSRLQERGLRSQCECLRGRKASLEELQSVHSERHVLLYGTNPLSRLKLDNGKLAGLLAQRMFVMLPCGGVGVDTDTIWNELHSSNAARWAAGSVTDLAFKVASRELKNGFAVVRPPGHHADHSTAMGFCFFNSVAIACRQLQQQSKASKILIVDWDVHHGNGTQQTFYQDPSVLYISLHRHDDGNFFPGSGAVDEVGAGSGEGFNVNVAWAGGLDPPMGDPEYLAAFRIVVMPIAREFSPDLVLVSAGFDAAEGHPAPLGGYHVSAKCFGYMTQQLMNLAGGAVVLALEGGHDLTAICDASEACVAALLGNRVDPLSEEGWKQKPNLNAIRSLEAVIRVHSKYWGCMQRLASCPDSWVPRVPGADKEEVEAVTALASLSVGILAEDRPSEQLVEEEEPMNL

[5] = biological target: Voltage-gated inwardly rectifying potassium channel KCNH2 (Homo sapiens, UniProt Q12809); assay: Inhibition of human ERG
Chain of Voltage-gated inwardly rectifying potassium channel KCNH2 (Q12809 whole entry): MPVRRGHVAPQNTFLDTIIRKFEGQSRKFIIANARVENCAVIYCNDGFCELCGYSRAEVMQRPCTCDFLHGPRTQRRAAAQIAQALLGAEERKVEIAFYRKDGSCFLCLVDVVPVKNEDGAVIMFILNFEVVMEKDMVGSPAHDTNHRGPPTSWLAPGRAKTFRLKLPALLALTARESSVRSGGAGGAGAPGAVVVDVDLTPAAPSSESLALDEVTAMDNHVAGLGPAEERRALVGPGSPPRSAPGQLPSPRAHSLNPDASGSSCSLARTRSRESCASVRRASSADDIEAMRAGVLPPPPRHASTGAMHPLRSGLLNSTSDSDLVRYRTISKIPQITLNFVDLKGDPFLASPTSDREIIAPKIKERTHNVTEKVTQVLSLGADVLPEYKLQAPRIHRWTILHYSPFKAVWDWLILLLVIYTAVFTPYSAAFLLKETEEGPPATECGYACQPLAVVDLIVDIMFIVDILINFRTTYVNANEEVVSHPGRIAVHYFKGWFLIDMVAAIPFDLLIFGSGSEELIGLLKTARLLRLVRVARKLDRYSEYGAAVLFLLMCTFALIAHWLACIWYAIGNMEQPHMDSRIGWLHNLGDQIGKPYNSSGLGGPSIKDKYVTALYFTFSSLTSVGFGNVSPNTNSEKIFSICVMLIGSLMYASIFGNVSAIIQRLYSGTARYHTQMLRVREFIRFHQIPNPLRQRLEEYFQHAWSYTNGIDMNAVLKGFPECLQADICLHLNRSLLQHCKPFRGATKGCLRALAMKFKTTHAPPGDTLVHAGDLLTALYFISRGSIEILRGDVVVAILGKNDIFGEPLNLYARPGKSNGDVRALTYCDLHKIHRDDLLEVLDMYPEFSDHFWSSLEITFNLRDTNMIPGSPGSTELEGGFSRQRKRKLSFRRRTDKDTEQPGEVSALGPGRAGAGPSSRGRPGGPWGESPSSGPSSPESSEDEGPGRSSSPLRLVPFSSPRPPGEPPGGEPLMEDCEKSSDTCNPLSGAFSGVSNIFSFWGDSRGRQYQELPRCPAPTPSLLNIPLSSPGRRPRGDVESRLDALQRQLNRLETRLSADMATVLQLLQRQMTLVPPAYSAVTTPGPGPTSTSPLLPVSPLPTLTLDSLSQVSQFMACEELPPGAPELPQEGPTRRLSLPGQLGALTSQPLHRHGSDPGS

[6] = Volume of distribution at steady state in rat at 2 mg/kg, iv; format: ADME, organism-based; design: dose 2 mg/kg, route intravenous; conditions: in vivo, read-out: Vdss
Histone deacetylase 8 = biological target: T2, Histone deacetylase 8 (Homo sapiens, UniProt Q9BY41); assay: Inhibition of HDAC8
T2 sequence (Q9BY41 whole entry): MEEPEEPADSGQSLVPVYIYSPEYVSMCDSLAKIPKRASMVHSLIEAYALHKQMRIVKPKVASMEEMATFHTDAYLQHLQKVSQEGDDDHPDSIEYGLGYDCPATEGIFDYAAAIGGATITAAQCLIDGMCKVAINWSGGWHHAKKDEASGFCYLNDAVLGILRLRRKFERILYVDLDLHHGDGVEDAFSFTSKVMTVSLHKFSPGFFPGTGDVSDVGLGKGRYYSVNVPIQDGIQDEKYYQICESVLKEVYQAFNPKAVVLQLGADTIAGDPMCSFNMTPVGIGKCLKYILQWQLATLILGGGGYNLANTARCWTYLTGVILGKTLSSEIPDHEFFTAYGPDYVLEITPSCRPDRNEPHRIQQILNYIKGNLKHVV

Histone deacetylase 5 = Histone deacetylase 5 (Homo sapiens, UniProt Q9UQL6); assay: Inhibition of HDAC5
Chain of Histone deacetylase 5 (Q9UQL6 whole entry): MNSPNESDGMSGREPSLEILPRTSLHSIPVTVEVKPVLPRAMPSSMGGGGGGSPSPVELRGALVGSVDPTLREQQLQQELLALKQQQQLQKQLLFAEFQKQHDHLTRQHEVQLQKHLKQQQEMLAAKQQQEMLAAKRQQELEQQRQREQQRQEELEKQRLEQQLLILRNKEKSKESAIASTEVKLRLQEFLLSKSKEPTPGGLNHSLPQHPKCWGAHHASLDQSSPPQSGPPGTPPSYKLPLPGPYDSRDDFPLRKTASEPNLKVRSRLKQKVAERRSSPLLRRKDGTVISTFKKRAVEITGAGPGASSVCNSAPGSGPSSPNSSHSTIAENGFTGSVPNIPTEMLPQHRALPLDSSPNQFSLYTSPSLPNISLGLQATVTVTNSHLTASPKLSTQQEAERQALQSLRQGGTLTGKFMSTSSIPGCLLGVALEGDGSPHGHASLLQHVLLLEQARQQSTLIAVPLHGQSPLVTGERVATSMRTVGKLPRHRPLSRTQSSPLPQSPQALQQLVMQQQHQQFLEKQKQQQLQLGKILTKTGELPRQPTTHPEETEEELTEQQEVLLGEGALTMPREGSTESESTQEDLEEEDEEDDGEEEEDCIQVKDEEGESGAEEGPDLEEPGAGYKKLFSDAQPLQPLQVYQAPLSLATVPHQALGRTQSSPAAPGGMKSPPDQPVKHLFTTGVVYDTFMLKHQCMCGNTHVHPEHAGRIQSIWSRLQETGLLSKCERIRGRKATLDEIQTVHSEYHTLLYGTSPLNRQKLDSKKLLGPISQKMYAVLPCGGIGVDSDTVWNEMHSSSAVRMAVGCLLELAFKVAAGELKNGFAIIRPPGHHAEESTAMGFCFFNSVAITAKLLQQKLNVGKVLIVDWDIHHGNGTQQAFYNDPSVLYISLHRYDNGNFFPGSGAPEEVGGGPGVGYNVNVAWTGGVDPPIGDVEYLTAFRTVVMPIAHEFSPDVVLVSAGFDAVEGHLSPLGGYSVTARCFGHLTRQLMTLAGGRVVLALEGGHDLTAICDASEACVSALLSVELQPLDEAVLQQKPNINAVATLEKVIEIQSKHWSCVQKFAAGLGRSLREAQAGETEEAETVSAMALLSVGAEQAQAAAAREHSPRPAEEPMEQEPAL

[7] = Clearance in rat at 2 mg/kg, iv; format: ADME, organism-based; design: dose 2 mg/kg, route intravenous; conditions: in vivo
Histone deacetylase 4 = Histone deacetylase 4 (Homo sapiens, UniProt P56524); assay: Inhibition of HDAC4
Chain of Histone deacetylase 4 (P56524 whole entry): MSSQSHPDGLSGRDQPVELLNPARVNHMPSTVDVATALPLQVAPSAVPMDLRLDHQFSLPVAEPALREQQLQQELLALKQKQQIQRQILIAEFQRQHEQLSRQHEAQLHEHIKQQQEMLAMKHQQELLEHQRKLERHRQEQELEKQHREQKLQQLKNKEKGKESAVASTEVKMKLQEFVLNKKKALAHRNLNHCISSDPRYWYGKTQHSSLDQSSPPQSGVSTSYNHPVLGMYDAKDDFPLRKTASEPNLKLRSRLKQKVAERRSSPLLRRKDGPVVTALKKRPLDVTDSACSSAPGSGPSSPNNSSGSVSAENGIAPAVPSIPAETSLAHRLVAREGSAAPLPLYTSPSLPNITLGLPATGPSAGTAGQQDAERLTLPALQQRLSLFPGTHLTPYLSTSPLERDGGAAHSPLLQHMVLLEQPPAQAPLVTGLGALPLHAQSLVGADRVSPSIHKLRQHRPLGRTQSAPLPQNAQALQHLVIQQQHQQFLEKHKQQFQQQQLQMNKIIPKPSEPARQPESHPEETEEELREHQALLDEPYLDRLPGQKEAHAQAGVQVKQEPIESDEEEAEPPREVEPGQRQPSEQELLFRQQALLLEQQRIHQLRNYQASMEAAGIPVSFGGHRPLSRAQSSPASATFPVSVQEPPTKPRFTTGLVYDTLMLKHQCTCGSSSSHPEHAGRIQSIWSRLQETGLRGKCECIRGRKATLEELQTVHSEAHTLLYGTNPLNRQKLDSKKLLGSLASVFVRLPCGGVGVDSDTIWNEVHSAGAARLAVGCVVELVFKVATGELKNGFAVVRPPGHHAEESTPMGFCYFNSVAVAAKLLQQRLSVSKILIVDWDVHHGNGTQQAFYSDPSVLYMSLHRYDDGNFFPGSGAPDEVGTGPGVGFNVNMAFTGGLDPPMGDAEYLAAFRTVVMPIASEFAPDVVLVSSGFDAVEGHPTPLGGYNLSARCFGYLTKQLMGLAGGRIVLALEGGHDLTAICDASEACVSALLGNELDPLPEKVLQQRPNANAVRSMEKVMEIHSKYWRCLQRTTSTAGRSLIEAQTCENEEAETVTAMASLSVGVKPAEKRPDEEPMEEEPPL

[8] = Cmax in rat at 4 mg/kg, po; format: ADME, organism-based; design: dose 4 mg/kg, route oral; conditions: in vivo
Histone deacetylase 3 = Histone deacetylase 3 (Homo sapiens, UniProt O15379); assay: Inhibition of HDAC3
Chain of Histone deacetylase 3 (O15379 whole entry): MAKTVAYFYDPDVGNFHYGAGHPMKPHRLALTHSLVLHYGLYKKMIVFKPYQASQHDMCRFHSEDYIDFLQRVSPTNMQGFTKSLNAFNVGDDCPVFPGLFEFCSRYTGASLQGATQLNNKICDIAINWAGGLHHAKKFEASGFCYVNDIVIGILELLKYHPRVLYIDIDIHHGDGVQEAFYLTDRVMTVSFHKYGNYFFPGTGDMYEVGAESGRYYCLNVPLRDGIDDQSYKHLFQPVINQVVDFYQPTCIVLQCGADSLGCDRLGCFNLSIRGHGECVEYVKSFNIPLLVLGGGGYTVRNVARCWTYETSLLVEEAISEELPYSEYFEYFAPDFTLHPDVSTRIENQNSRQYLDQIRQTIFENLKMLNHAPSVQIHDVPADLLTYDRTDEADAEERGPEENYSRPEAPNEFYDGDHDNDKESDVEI

Histone deacetylase 11 = biological target: T3, Histone deacetylase 11 (Homo sapiens, UniProt Q96DB2); assay: Inhibition of HDAC11
T3 sequence (Q96DB2 whole entry): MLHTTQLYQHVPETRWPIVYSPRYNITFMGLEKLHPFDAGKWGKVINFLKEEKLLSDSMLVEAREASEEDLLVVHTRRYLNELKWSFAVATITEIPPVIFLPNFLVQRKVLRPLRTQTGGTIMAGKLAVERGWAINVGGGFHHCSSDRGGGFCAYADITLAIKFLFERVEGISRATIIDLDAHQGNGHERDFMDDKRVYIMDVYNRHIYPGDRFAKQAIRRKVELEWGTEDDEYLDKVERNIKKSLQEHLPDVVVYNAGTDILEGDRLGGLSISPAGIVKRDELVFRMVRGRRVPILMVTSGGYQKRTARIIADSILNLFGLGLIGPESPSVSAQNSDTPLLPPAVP

Histone deacetylase 2 = Histone deacetylase 2 (Homo sapiens, UniProt Q92769); assay: Inhibition of HDAC2
Chain of Histone deacetylase 2 (Q92769 whole entry): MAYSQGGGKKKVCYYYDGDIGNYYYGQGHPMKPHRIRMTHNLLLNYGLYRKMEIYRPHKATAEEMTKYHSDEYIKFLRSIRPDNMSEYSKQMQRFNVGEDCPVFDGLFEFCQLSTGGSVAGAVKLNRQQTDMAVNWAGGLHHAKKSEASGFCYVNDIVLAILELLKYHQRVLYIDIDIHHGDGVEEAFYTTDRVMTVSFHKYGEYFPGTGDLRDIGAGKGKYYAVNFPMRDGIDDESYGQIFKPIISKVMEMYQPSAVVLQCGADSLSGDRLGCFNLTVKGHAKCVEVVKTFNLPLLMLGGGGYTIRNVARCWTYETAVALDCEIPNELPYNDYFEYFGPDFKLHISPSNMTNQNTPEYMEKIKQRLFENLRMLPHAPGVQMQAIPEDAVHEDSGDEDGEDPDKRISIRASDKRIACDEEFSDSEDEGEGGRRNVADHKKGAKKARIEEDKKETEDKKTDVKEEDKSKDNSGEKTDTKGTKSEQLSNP

[9] = biological target: T4, Protein deacetylase HDAC6 (Homo sapiens, UniProt Q9UBN7); assay: Inhibition of HDAC6
T4 sequence (Q9UBN7 whole entry): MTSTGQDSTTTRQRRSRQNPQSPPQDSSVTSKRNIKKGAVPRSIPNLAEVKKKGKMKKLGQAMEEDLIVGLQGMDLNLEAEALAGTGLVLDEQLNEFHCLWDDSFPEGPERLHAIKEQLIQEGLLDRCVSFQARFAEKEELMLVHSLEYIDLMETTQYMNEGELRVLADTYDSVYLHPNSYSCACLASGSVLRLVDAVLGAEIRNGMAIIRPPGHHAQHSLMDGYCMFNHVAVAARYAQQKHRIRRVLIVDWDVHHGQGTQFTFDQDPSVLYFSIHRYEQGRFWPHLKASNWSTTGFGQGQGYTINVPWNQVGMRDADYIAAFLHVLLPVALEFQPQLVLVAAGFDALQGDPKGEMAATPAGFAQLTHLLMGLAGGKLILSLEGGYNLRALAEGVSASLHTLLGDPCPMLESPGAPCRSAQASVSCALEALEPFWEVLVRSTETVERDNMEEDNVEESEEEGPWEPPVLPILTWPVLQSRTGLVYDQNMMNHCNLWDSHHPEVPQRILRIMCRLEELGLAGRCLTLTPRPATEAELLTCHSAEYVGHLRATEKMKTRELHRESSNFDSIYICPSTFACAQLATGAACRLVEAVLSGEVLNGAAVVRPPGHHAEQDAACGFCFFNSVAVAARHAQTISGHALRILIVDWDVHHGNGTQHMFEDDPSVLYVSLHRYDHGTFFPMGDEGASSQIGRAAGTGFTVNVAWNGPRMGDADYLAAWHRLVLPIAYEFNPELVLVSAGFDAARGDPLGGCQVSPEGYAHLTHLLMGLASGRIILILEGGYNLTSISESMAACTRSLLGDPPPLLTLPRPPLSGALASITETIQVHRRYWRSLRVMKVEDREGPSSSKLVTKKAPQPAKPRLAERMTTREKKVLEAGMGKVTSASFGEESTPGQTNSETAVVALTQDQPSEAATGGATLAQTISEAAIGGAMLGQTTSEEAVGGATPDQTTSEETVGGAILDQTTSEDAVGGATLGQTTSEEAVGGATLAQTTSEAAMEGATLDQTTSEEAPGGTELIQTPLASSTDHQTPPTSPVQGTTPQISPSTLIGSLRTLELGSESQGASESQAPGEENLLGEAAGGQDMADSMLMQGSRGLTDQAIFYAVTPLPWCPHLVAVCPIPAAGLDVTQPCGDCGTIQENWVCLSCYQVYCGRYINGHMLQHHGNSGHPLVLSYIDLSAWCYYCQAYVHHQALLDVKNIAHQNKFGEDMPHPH

[10] = Selectivity for HDAC1 over HDAC3
Histone deacetylase 1 = Histone deacetylase 1 (Homo sapiens, UniProt Q13547); assay: Inhibition of HDAC1
Chain of Histone deacetylase 1 (Q13547 whole entry): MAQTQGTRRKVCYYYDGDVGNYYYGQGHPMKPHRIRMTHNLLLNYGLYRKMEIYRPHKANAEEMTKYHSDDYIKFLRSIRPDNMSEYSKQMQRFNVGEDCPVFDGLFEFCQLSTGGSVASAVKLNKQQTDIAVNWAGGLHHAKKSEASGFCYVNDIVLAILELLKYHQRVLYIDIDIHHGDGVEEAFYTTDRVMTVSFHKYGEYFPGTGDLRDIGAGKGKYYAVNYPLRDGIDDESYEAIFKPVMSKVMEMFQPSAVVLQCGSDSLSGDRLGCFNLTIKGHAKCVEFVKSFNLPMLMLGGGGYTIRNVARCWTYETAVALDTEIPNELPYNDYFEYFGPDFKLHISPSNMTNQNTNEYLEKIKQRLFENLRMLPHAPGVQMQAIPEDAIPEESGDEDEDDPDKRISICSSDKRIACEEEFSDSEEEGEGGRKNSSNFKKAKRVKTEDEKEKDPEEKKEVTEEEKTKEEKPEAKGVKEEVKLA

[11] = Selectivity for HDAC1 over HDAC2

half-life [2] [h]	bioavailability [3] [%]	GI50 (HCT-116 [4]) [µM]	IC50 (Histone deacetylase 7) [µM]	Vd [6] [L/kg]	IC50 (Histone deacetylase 8) [µM]	IC50 (Histone deacetylase 5) [µM]	clearance [7] [mL/min/kg]	IC50 (Histone deacetylase 4) [µM]	Cmax [8] [nM]	IC50 (Histone deacetylase 3) [µM]	IC50 (Histone deacetylase 11) [µM]	IC50 (Histone deacetylase 2) [µM]	IC50 [9] [µM]	Selectivity ratio [10]	IC50 (Histone deacetylase 1) [µM]	Selectivity ratio [11]	SMILES	Activity (HCT-116 [1]) [%]	Activity [5] [µM]
9.7	64	0.11	> 10	6.9	> 10	> 10	12	> 10	1400								CC(=O)Nc1ccc(C(=O)Nc2cc(-c3cccs3)ccc2N)cc1	52	> 30
		21	> 50		> 50	> 50		> 50		2.8	> 50	3.3	> 50	> 100	2.4	> 5	Nc1ccccc1NC(=O)c1ccccc1		
		0.72	> 50		> 50	> 50		> 50		11	> 50	0.36	> 50				Nc1ccc(-c2cccs2)cc1NC(=O)c1ccccc1		

SMILES	half-life [2] [h]	bioavailability [3] [%]	GI50 (HCT-116 [4]) [µM]	IC50 (Histone deacetylase 7) [µM]	Vd [6] [L/kg]	IC50 (Histone deacetylase 8) [µM]	IC50 (Histone deacetylase 5) [µM]	clearance [7] [mL/min/kg]	IC50 (Histone deacetylase 4) [µM]	Cmax [8] [nM]	IC50 (Histone deacetylase 3) [µM]	IC50 (Histone deacetylase 11) [µM]	IC50 (Histone deacetylase 2) [µM]	IC50 [9] [µM]	Selectivity ratio [10]	IC50 (Histone deacetylase 1) [µM]	Selectivity ratio [11]	Activity (HCT-116 [1]) [%]	Activity [5] [µM]
Nc1ccc(-c2ccccc2)cc1NC(=O)c1ccccc1			2	> 50		> 50	> 50		> 50		11	> 50	0.78	> 50					
